Publication PMC4854315, “Discovery of a novel allosteric inhibitor-binding site in ERK5: comparison with the canonical kinase hinge ATP-binding site” (Acta Crystallographica. Section D, Structural Biology, 2016)

Key:
Test in all cases: Z'-LYTE kinase panel
Type in all cases: biochemical
MAPK11 (p38 beta) = target: T1, MAPK11 (p38 beta) (Homo sapiens, UniProt Q15759)
T1 construct: purchased ThermoFisher (SelectScreen, Z'-LYTE)
Method in brief: (§1)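 Standard Z′-LYTE protocol applied. Compound fixed at 10 µM. Output: % inhibition. Panel size 225 kinases.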

SGK (SGK1) = target: T2, SGK (SGK1) (Homo sapiens, UniProt O00141)
T2 construct: purchased ThermoFisher (SelectScreen, Z'-LYTE)
T2 sequence (O00141 1-431): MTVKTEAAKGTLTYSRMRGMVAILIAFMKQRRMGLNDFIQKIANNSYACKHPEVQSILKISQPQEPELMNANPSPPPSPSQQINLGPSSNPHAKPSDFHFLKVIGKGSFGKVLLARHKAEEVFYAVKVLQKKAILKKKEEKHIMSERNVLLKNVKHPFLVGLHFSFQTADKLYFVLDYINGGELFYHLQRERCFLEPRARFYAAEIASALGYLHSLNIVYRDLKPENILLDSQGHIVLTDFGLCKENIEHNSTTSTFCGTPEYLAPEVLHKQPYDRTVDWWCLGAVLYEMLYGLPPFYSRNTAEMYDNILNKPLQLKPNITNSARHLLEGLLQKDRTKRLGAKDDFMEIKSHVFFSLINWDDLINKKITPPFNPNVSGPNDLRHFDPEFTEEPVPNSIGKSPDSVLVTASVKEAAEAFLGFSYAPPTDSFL
Method in brief: as §1

AKT2 (PKB beta) = target: T3, AKT2 (PKB beta) (Homo sapiens, UniProt P31751)
T3 construct: purchased ThermoFisher (SelectScreen, Z'-LYTE)
Method in brief: as §1

NEK1 = target: T4, NEK1 (Homo sapiens, UniProt Q96PY6)
T4 construct: purchased ThermoFisher (SelectScreen, Z'-LYTE)
T4 sequence (Q96PY6 1-1258): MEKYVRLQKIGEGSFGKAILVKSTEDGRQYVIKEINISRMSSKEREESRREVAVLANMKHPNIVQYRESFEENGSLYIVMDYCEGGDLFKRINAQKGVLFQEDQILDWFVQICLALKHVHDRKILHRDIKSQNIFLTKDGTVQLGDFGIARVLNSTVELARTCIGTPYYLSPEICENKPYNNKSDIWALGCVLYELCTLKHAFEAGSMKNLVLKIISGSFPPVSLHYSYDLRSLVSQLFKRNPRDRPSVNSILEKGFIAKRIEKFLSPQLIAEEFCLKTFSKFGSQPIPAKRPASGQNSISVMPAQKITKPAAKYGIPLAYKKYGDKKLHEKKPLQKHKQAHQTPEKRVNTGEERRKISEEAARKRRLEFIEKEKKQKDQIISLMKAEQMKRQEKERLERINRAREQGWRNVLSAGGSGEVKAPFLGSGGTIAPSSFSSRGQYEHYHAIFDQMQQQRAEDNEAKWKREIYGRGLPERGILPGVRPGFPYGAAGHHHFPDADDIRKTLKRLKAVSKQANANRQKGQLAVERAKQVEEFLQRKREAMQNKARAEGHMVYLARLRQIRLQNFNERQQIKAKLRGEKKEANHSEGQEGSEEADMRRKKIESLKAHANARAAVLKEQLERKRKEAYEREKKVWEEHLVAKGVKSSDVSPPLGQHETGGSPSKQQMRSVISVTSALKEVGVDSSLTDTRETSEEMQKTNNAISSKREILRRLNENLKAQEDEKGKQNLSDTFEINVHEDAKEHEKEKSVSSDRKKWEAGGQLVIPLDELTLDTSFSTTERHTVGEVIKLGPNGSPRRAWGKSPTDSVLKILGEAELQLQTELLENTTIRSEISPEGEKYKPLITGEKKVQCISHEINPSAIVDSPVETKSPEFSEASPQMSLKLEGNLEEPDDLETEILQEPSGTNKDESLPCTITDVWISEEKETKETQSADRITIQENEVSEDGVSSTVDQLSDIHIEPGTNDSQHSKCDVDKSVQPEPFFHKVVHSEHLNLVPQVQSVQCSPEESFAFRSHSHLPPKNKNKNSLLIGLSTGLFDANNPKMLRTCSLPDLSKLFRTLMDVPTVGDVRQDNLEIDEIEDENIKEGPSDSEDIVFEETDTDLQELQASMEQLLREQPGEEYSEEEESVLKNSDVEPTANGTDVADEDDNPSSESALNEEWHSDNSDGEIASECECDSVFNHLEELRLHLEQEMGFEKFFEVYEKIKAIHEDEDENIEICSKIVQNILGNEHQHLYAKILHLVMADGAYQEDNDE
Method in brief: as §1

PLK3 = target: T5, PLK3 (Homo sapiens, UniProt Q9H4B4)
T5 construct: purchased ThermoFisher (SelectScreen, Z'-LYTE)
Method in brief: as §1

CHEK1 (CHK1) = target: T6, CHEK1 (CHK1) (Homo sapiens, UniProt O14757)
T6 construct: purchased ThermoFisher (SelectScreen, Z'-LYTE)
T6 sequence (O14757 1-476): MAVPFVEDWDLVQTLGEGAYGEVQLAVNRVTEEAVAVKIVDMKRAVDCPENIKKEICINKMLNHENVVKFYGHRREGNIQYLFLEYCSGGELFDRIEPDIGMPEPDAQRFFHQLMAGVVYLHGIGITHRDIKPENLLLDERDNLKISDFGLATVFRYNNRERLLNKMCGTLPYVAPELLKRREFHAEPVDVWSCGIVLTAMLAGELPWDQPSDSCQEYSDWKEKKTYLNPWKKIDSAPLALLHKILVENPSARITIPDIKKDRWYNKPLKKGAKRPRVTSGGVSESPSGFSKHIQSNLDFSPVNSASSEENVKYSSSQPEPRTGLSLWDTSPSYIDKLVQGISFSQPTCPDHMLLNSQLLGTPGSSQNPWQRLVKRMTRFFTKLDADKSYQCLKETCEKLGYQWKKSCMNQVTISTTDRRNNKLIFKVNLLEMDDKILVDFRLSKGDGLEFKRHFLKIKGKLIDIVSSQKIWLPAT
Method in brief: as §1

CLK1 = target: T7, CLK1 (Homo sapiens, UniProt P49759)
T7 construct: purchased ThermoFisher (SelectScreen, Z'-LYTE)
Method in brief: as §1

CSNK2A2 (CK2 alpha 2) = target: T8, CSNK2A2 (CK2 alpha 2) (Homo sapiens, UniProt P19784)
T8 construct: purchased ThermoFisher (SelectScreen, Z'-LYTE)
Method in brief: as §1

T7 sequence (P49759 whole entry): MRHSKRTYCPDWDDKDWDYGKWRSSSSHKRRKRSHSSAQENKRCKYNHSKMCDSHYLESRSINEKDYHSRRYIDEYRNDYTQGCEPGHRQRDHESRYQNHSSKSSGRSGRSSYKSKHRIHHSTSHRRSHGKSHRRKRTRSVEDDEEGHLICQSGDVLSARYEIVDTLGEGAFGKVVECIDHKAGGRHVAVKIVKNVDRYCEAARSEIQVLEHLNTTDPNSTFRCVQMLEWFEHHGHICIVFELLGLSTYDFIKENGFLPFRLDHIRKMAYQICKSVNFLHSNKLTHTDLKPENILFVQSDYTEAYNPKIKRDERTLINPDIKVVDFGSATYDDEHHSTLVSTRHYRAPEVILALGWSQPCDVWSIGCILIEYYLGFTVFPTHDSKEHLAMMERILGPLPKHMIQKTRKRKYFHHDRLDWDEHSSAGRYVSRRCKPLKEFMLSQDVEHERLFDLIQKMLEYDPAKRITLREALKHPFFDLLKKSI
T3 sequence (P31751 whole entry): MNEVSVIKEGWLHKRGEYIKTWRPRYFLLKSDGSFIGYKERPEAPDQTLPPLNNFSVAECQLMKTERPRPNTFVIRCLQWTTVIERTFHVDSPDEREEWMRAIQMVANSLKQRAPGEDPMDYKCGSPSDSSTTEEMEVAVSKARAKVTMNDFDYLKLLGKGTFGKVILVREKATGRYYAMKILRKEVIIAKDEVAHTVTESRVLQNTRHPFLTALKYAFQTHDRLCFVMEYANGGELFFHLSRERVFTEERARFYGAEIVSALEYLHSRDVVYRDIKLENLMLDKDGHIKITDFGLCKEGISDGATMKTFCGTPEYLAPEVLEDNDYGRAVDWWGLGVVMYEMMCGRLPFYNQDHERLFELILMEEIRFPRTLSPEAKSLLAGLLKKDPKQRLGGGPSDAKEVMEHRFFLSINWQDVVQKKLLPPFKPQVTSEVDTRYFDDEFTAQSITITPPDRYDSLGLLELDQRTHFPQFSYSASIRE
T1 sequence (Q15759 whole entry): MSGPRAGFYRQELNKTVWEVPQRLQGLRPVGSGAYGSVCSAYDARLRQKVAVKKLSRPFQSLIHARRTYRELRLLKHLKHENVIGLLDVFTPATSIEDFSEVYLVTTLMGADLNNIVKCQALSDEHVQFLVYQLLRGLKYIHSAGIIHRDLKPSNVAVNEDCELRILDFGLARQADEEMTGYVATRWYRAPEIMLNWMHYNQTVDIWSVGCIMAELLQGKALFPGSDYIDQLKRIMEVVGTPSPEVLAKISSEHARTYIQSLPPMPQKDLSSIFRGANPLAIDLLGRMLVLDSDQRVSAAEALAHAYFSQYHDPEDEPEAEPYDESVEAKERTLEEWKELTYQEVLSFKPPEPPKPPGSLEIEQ
T8 sequence (P19784 whole entry): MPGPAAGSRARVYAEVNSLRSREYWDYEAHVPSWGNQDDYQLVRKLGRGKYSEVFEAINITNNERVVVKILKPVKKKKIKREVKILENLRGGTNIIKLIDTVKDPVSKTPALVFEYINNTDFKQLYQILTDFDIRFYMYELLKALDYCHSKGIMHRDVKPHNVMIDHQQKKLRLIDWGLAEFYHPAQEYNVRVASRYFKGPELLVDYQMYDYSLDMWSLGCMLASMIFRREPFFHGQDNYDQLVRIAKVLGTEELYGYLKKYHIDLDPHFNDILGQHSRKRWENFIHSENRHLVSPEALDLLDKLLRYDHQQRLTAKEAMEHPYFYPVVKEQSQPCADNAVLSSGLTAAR
T5 sequence (Q9H4B4 whole entry): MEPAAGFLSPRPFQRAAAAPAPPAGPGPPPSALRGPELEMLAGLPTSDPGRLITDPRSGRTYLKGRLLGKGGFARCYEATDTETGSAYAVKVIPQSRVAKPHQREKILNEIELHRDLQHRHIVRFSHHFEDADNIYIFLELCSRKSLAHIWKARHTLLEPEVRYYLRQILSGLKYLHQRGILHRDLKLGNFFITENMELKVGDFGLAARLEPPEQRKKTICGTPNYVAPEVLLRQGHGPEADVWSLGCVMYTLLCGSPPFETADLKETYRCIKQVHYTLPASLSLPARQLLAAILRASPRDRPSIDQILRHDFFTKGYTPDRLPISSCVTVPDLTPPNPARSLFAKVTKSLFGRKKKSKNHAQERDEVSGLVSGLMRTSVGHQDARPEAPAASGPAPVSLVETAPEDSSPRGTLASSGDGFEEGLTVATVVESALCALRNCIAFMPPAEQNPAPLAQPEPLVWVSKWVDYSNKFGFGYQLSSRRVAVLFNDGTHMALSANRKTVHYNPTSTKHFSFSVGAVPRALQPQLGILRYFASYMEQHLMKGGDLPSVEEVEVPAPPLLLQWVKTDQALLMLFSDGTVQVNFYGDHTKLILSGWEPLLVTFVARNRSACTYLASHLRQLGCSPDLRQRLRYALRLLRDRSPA

Compound	MAPK11 (p38 beta) % Inhibition (MAPK11 (p38 beta); 10 µM compound, ATP Km app)	SGK (SGK1) % Inhibition (SGK (SGK1); 10 µM compound, ATP Km app)	AKT2 (PKB beta) % Inhibition (AKT2 (PKB beta); 10 µM compound, ATP Km app)	NEK1 % Inhibition (NEK1; 10 µM compound, ATP Km app)	PLK3 % Inhibition (PLK3; 10 µM compound, ATP Km app)	CHEK1 (CHK1) % Inhibition (CHEK1 (CHK1); 10 µM compound, ATP Km app)	CLK1 % Inhibition (CLK1; 10 µM compound, ATP Km app)	CSNK2A2 (CK2 alpha 2) % Inhibition (CSNK2A2 (CK2 alpha 2); 10 µM compound, ATP Km app)	inhibition at 10 µM (MAPK11 (p38 beta))	inhibition at 10 µM (SGK (SGK1))	inhibition at 10 µM (AKT2 (PKB beta))	inhibition at 10 µM (NEK1)	inhibition at 10 µM (PLK3)	inhibition at 10 µM (CHEK1 (CHK1))	inhibition at 10 µM (CLK1)	inhibition at 10 µM (CSNK2A2 (CK2 alpha 2))
XMD8-92 [Compound 2, reference compound]	10%	66%	98%	-9%	99%	8%	6%	-1.72%								
Cc1ncc(-c2nc(Nc3ccc(C(=O)NCCN4CCCCC4)cc3)ncc2F)n1C(C)C [Compound 3]									22%	91%	7%	6.39%	73%	87%	101%	77%
Cc1cc(Nc2nc(N)nn2C(=O)NC(C)C)ccc1Cl [Compound 5]									4.21%	9%	-0.29%	21%	18%	14%	10%	1.46%
